Laboratory results as given in patent publication US8703701B2 (Indiana University Research and Technology Corporation, priority 2009, dated 2014).
Starred links: 1 amine or outer side, 2 acyl side, 3 side chain; linkers in the order of their positions; H or OH if unused. Non-standard residues stand in square brackets, D forms with d. Residues, ends and D or L forms follow the SMILES beside them. Groups on a side chain read outwards from the residue. *: point of attachment. γGlu = O=C(O)[C@H](CCC(=O)[*:2])N[*:1]; Palmitoyl = CCCCCCCCCCCCCCCC(=O)*; Aib = CC(C)(N)C(=O)O

Assays:
GLP-1 receptor = biological target: T1, GLP-1 receptor (Homo sapiens, UniProt P43220); assay: cAMP induction, firefly luciferase reporter assay, GLP-1 receptor; format: cell-based; conditions: for Activity at GLP-1 Receptor % Relative Activity: compared to native GLP-1
T1 construct: expressed in transfected cells; host or cells: HEK293
Description: (§1) The ability of each peptide to induce cAMP was measured in a firefly luciferase-based reporter assay.
(§2) At the end of the incubation, 100 μL of LucLite luminescence substrate reagent (Perkin Elmer, Wellesley, Mass.) were added to each well. The plate was shaken briefly, incubated 10 min in the dark and light output was measured on MicroBeta-1450 liquid scintillation counter (Perkin-Elmer, Wellesley, Mass.).

glucagon receptor = biological target: T2, glucagon receptor (Homo sapiens, UniProt P47871); assay: cAMP induction, firefly luciferase reporter assay, glucagon receptor; format: cell-based; conditions: for Activity at Glucagon Receptor % Relative Activity: compared to native glucagon
T2 construct: expressed in transfected cells; host or cells: HEK293
Description: as §1, §2

T2 sequence (P47871 26-477): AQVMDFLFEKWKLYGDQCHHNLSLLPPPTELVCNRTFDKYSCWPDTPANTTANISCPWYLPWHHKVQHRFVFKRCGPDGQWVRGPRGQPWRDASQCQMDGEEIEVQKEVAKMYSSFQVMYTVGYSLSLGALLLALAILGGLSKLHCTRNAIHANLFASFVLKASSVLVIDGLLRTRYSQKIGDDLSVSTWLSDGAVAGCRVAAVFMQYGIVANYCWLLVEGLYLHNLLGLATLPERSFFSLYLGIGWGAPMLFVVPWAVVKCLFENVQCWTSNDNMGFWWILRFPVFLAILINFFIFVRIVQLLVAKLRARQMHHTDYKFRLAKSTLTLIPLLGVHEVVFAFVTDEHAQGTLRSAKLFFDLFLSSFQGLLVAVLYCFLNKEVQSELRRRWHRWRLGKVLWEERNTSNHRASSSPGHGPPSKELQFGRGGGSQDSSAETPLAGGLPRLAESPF
T1 sequence (P43220 24-463): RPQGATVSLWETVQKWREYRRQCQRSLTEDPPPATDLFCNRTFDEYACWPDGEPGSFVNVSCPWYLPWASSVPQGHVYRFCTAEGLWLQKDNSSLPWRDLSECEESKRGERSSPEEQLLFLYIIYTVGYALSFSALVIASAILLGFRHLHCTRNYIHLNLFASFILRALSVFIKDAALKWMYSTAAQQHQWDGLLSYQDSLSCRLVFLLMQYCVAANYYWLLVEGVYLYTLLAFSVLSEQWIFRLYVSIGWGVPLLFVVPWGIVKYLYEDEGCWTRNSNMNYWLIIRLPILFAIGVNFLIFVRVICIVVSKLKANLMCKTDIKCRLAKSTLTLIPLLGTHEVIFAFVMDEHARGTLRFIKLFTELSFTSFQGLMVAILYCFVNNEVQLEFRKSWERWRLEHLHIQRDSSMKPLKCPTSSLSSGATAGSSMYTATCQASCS

SMILES | Activity at GLP-1 Receptor % Relative Activity (GLP-1 receptor; Table 2B) [%] | Activity at Glucagon Receptor % Relative Activity (glucagon receptor; Table 2B) [%] | Activity at GLP-1 Receptor % Relative Activity (GLP-1 receptor; Table 3A) [%] | Activity at Glucagon Receptor % Relative Activity (glucagon receptor; Table 3A) [%] | further results
CC(C)C[C@H](NC(=O)[C@H](Cc1c[nH]c2ccccc12)NC(=O)[C@H](CS)NC(=O)[C@@H](NC(=O)[C@H](Cc1ccccc1)NC(=O)[C@H](CCC(=O)O)NC(=O)[C@H](CCCCN)NC(=O)[C@H](C)NC(=O)[C@H](C)NC(=O)[C@H](CCCCN)NC(=O)C(C)(C)NC(=O)[C@H](CC(=O)O)NC(=O)[C@H](CC(C)C)NC(=O)[C@H](Cc1ccc(O)cc1)NC(=O)[C@H](CCCCN)NC(=O)[C@H](CO)NC(=O)[C@H](Cc1ccc(O)cc1)NC(=O)[C@H](CC(=O)O)NC(=O)[C@H](CO)NC(=O)[C@@H](NC(=O)[C@H](Cc1ccccc1)NC(=O)[C@@H](NC(=O)CNC(=O)[C@H](CCC(N)=O)NC(=O)C(C)(C)NC(=O)[C@@H](N)Cc1c[nH]cn1)[C@@H](C)O)[C@@H](C)O)C(C)C)C(=O)N[C@@H](CC(C)C)C(=O)N[C@@H](CC(=O)O)C(=O)N[C@H](C(N)=O)[C@@H](C)O [compound 64] (H-H[Aib]QGTFTSDYSKYLD[Aib]KAAKEFVCWLLDT-NH2; N-terminus assumed) | 308 | 79 |  |  | EC50 (GLP-1 receptor; Activity at GLP-1 Receptor EC50 (nM), Table 2B): 0.012 nM
CSCC[C@H](NC(=O)[C@H](CC(C)C)NC(=O)[C@H](Cc1c[nH]c2ccccc12)NC(=O)[C@H](CCC(N)=O)NC(=O)[C@@H](NC(=O)[C@H](Cc1ccccc1)NC(=O)[C@H](CCC(=O)O)NC(=O)[C@H](CCCCN)NC(=O)[C@H](C)NC(=O)[C@H](CCCNC(=N)N)NC(=O)[C@H](CCCCN)NC(=O)[C@H](CCC(=O)O)NC(=O)[C@H](CC(=O)O)NC(=O)[C@H](CC(C)C)NC(=O)[C@H](Cc1ccc(O)cc1)NC(=O)[C@H](CCCCN)NC(=O)[C@H](CO)NC(=O)[C@H](Cc1ccc(O)cc1)NC(=O)[C@H](CC(=O)O)NC(=O)[C@H](CO)NC(=O)[C@@H](NC(=O)[C@H](Cc1ccccc1)NC(=O)[C@@H](NC(=O)CNC(=O)[C@H](CCC(N)=O)NC(=O)[C@H](CO)NC(=O)[C@@H](N)Cc1c[nH]cn1)[C@@H](C)O)[C@@H](C)O)C(C)C)C(=O)N[C@@H](CC(N)=O)C(=O)N[C@H](C(N)=O)[C@@H](C)O [compound 65] | 64 | 264 |  |  | 
CCCCCCCCCCCCCCCC(=O)NCCCC[C@H](NC(=O)[C@H](CC(=O)O)NC(=O)[C@H](CO)NC(=O)[C@@H](NC(=O)[C@H](Cc1ccccc1)NC(=O)[C@@H](NC(=O)CNC(=O)[C@H](CCC(N)=O)NC(=O)C(C)(C)NC(=O)[C@@H](N)Cc1c[nH]cn1)[C@@H](C)O)[C@@H](C)O)C(=O)N[C@@H](CO)C(=O)N[C@@H](CCCCN)C(=O)N[C@@H](Cc1ccc(O)cc1)C(=O)N[C@@H](CC(C)C)C(=O)N[C@@H](CC(=O)O)C(=O)NC(C)(C)C(=O)N[C@@H](CCCNC(=N)N)C(=O)N[C@@H](C)C(=O)N[C@@H](C)C(=O)N[C@@H](CCC(N)=O)C(=O)N[C@@H](CC(=O)O)C(=O)N[C@@H](Cc1ccccc1)C(=O)N[C@H](C(=O)N[C@@H](CCC(N)=O)C(=O)N[C@@H](Cc1c[nH]c2ccccc12)C(=O)N[C@@H](CC(C)C)C(=O)N[C@@H](CCSC)C(=O)N[C@@H](CC(=O)O)C(=O)N[C@H](C(N)=O)[C@@H](C)O)C(C)C [compound 69] (H-H[Aib]QGTFTSDK(Palmitoyl)SKYLD[Aib]RAAQDFVQWLMDT-NH2; N-terminus assumed) |  |  |  |  | EC50 (GLP-1 receptor; Activity at GLP-1 Receptor EC50 [pM], Table 3B): 0.005 nM; Activity at GLP-1 Receptor % Relative Activity (GLP-1 receptor; Table 3B): 440%; Activity at Glucagon Receptor % Relative Activity (glucagon receptor; Table 3B): 325%
CCCCCCCCCCCCCCCC(=O)N[C@@H](CCC(=O)N[C@@H](CCC(=O)NCCCC[C@H](NC(=O)[C@H](CC(=O)O)NC(=O)[C@H](CO)NC(=O)[C@@H](NC(=O)[C@H](Cc1ccccc1)NC(=O)[C@@H](NC(=O)CNC(=O)[C@H](CCC(N)=O)NC(=O)C(C)(C)NC(=O)[C@@H](N)Cc1c[nH]cn1)[C@@H](C)O)[C@@H](C)O)C(=O)N[C@@H](CO)C(=O)N[C@@H](CCCCN)C(=O)N[C@@H](Cc1ccc(O)cc1)C(=O)N[C@@H](CC(C)C)C(=O)N[C@@H](CCC(=O)O)C(=O)NC(C)(C)C(=O)N[C@@H](CCCNC(=N)N)C(=O)N[C@@H](C)C(=O)N[C@@H](C)C(=O)N[C@@H](CCC(N)=O)C(=O)N[C@@H](CC(=O)O)C(=O)N[C@@H](Cc1ccccc1)C(=O)N[C@H](C(=O)N[C@@H](CCC(N)=O)C(=O)N[C@@H](Cc1c[nH]c2ccccc12)C(=O)N[C@@H](CC(C)C)C(=O)N[C@@H](CCSC)C(=O)N[C@@H](CC(=O)O)C(=O)N[C@H](C(N)=O)[C@@H](C)O)C(C)C)C(=O)O)C(=O)O [compound 48] (H-H[Aib]QGTFTSDK([γGlu-γGlu-Palmitoyl])SKYLE[Aib]RAAQDFVQWLMDT-NH2; N-terminus assumed) |  |  | 384 | 1194 | EC50 (GLP-1 receptor; Activity at GLP-1 Receptor EC50 [pM], Table 3A): 0.006 nM; EC50 (glucagon receptor; Activity at Glucagon Receptor EC50 [pM], Table 3A): 3 pM
CCCCCCCCCCCCCCCC(=O)N[C@@H](CCC(=O)N[C@@H](CCC(=O)NCCCC[C@H](NC(=O)[C@H](CC(=O)O)NC(=O)[C@H](CO)NC(=O)[C@@H](NC(=O)[C@H](Cc1ccccc1)NC(=O)[C@@H](NC(=O)CNC(=O)[C@H](CCC(N)=O)NC(=O)C(C)(C)NC(=O)[C@@H](N)Cc1c[nH]cn1)[C@@H](C)O)[C@@H](C)CC)C(=O)N[C@@H](CO)C(=O)N[C@@H](CCCCN)C(=O)N[C@@H](Cc1ccc(O)cc1)C(=O)N[C@@H](CC(C)C)C(=O)N[C@@H](CC(=O)O)C(=O)NC(C)(C)C(=O)N[C@@H](CCCNC(=N)N)C(=O)N[C@@H](C)C(=O)N[C@@H](C)C(=O)N[C@@H](CCC(N)=O)C(=O)N[C@@H](CC(=O)O)C(=O)N[C@@H](Cc1ccccc1)C(=O)N[C@H](C(=O)N[C@@H](CCC(N)=O)C(=O)N[C@@H](Cc1c[nH]c2ccccc12)C(=O)N[C@@H](CC(C)C)C(=O)N[C@@H](CCSC)C(=O)N[C@@H](CC(=O)O)C(=O)N[C@H](C(=O)O)[C@@H](C)O)C(C)C)C(=O)O)C(=O)O [compound 46] |  |  | 4.9 | 2800 | 
CCCCCCCCCCCCCCCC(=O)N[C@@H](CCC(=O)NCCCC[C@H](NC(=O)[C@H](CC(=O)O)NC(=O)[C@H](CO)NC(=O)[C@@H](NC(=O)[C@H](Cc1ccccc1)NC(=O)[C@@H](NC(=O)CNC(=O)[C@H](CCC(N)=O)NC(=O)[C@@H](CO)NC(=O)[C@@H](N)Cc1c[nH]cn1)[C@@H](C)O)[C@@H](C)O)C(=O)N[C@@H](CO)C(=O)N[C@@H](CCCCN)C(=O)N[C@@H](Cc1ccc(O)cc1)C(=O)N[C@@H](CC(C)C)C(=O)N[C@@H](CC(=O)O)C(=O)N[C@@H](CCC(=O)O)C(=O)N[C@@H](CCC(N)=O)C(=O)N[C@@H](C)C(=O)N[C@@H](C)C(=O)N[C@@H](CCCCN)C(=O)N[C@@H](CCC(=O)O)C(=O)N[C@@H](Cc1ccccc1)C(=O)N[C@H](C(=O)N[C@@H](CS)C(=O)N[C@@H](Cc1c[nH]c2ccccc12)C(=O)N[C@@H](CC(C)C)C(=O)N[C@@H](CC(C)C)C(=O)N[C@@H](CC(=O)O)C(=O)N[C@H](C(=O)NCC(=O)O)[C@@H](C)O)[C@@H](C)CC)C(=O)O [compound 55] |  |  |  |  | Activity at GLP-1 Receptor % Relative Activity (GLP-1 receptor; Table 5): 16%; Activity at Glucagon Receptor % Relative Activity (glucagon receptor; Table 5): 7%
